No end group written: not given here.

This note sets out measurements from patent US10641778B2, “System and method for analysis of peptide synthesis fidelity” (Roche Sequencing Solutions, Inc., priority 2015, dated 2020).

The subject of experiment [1] is engineered form of the protein streptavidin. Briefly: Detection of acetic acid contamination of the arginine synthesis reagent: streptavidin signal output on control peptide features. Format: binding. As for the experimental part:
In another example according to the present disclosure, a control peptide sequence was used to identify the presence of a contaminant in the arginine synthesis reagent. Preliminarily, it was determined using the methods described herein that the control peptide sequence [N]-GYERPGWKLAG-[C] (SEQ ID NO:19) can be used to detect the presence (or absence) of acetic acid in one or more of the synthesis reagents used to synthesize a population of peptides including the control peptide sequence GYERPGWKLAG (SEQ ID NO:19). In the present example, peptide sequences were synthesized from the C-terminus to the N-terminus. Using this synthesis scheme, it was determined that the amino acid Pro in the 5th position from the N-terminus of SEQ ID NO:19 is susceptible to acetylation in the presence of acetic acid. Without being limited by theory, it is hypothesized that as the direction of synthesis is from the C-terminus to the N-terminus, instead of addition of the amino acid Arg in the 4th position from the N-terminus following addition of the amino acid Pro in the 5th position, acetic acid was able to form an amino acid bond with the terminal proline.
Moreover, the concentration of acetic acid in a synthesis reagent can be correlated with the signal output characteristic of the interaction of the streptavidin receptor with the control peptide feature (SEQ ID NO:19) or the truncated version thereof (SEQ ID NO:20). […] However, the amino acids at the N-terminus should be selected such that there is a detectable difference in the interaction of streptavidin with the alternative control peptide.
To illustrate the detection of varying concentrations of acetic acid in a peptide synthesis reagent, four different NPPOC-protected arginine reagent solutions were prepared with differing concentrations (volume %) of acetic acid. A first arginine solution included no detectable amount of acetic acid (i.e., about 0.00%), a second arginine solution included 0.03% acetic acid, a third arginine solution included a 0.18% acetic acid, and a fourth arginine solution included 0.38% acetic acid. Four different synthetic peptide populations were synthesized using one of the four arginine solutions, and the signal output characteristic of the interaction of the streptavidin receptor with each of the control peptide features (SEQ ID NO:19) or the truncated versions thereof (SEQ ID NO:20) was determined (FIG. 24). […] In the present example, the raw signal output associated with the arginine reagent solution including 0.03% acetic acid was 1000 units, whereas the signal output associated with the arginine reagent solutions including 0.38% acetic acid was about 30,000 units. […]

The next experiment concerns the target streptavidin (Streptomyces avidinii, UniProt P22629). Briefly: Streptavidin receptor interaction with control peptide features on a peptide array, fluorescence signal (substitution/deletion profiles). It counts as binding. The note with it: raw fluorescence signal of streptavidin interaction with control peptide; variants at 6th position from N-terminus (FIG. 8A). An excerpt: A number of receptor molecules 616 are shown as interacting with the peptide feature 606. Interaction of the receptor molecules 616 with the peptide feature 606 can include binding, catalysis of (or participation in) a reaction including peptides within the peptide feature 606, digestion of the peptides within the feature 606, the like, and combinations thereof. In the present example shown in FIGS. 6A-6C, the receptor 616 was used in the identification of the peptide binder sequence represented by the peptides in the feature 606 (i.e., [N]-Gly-Phe-Glu-Asp-Tyr-Leu-Gly-Glu-Tyr-His-Gly-[C] (SEQ ID NO:1)). […] In one aspect, the interaction of the receptor molecules 616 with the population of peptide features 602 on the peptide array 600 can be detected, for example, by labelling the receptor molecules 616 with a detectable tag 618 (FIG. 6C). […]
In a next step 660 of the method 650, the synthetic peptide population is interrogated in the presence of a receptor having an affinity for the peptide binder sequences encoded by the control peptides. […] Thereafter, in a step 662 of the method 650, an output of the peptide-receptor interaction is detected. […] Accordingly, based on the output detected in the step 662, a step 664 of the method 650 can include assessing the fidelity of amino acid incorporation. […]

streptavidin, sequence (P22629 25-183, species assumed): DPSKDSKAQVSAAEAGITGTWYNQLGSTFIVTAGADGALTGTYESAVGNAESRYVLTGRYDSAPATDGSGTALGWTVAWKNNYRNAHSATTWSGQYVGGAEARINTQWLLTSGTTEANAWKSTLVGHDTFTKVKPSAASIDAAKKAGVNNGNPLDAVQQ

As to “*PGWKLAG (Ac-PGWKLAG) [*PGWKLAG (SEQ ID NO:20), *P is acetylated N-terminal Pro]”, the “affinity towards an engineered form of the protein streptavidin” value in experiment [1] (acetylated truncated peptide on array (FIG. 24)) is listed as “exhibit intrinsic affinity”.

Consider GWTHPMFEQKG [GWTHPMFEQKG (SEQ ID NO:2)], for which, in the experiment with streptavidin, the average raw signal was 18,000 units.

Turning to “GYERPGWKLAG [GYERPGWKLAG (SEQ ID NO:19), control peptide to detect acetic acid contamination in synthesis reagents]”, the “increase in raw signal” value in experiment [1] (acetic acid in arginine reagent raised from 0.03% to 0.38%) turned out to be 30 fold. This substance gave a raw signal output in experiment [1] (control peptide features (SEQ ID NO:19 or truncated SEQ ID NO:20) synthesized with arginine reagent solution including 0.03% acetic acid (FIG. 24)) of 1000 units. Further, the signal output result in experiment [1] (control peptide features (SEQ ID NO:19 or truncated SEQ ID NO:20) synthesized with arginine reagent solution including 0.38% acetic acid (FIG. 24)) was “about 30,000 units”.
